{
  "source": "paper PMC5218480",
  "about": "(PLoS ONE, 2017)",
  "system": "MV-4-11 cells",
  "assay": "Gene expression microarray analysis (Affymetrix PrimeView) and GSEA",
  "type": "cell-based, human",
  "design": "RFU PODN (11730768_x_at) / Fold change /veh PODN (11730768_x_at) / RFU LINC00158 (11744669_a_at) / Fold change /veh LINC00158 (11744669_a_at) / RFU DUSP10 (11751237_a_at) / Fold change /veh DUSP10 (11751237_a_at) / RFU ID3 (11757404_x_at) / Fold change /veh ID3 (11757404_x_at) / RFU PLEKHG5 (11737974_s_at) / Fold change /veh PLEKHG5 (11737974_s_at) / RFU LRRC4B (11730491_at) / Fold change /veh LRRC4B (11730491_at) / RFU GIMAP4 (11747438_a_at) / Fold change /veh GIMAP4 (11747438_a_at) / RFU KRT8 (11758183_x_at) / Fold change /veh KRT8 (11758183_x_at) / RFU CNN1 (11734310_a_at) / Fold change /veh CNN1 (11734310_a_at) / RFU VPS37D (11726825_at) / Fold change /veh VPS37D (11726825_at) / RFU C10orf10 (11716522_x_at) / Fold change /veh C10orf10 (11716522_x_at) / RFU KIR2DL2 /// KIR2DL4 /// KIR2DL5A /// KIR2DL5B /// KIR2DS1 /// KIR2DS2 /// KIR2DS3 /// KIR2DS4 /// KIR3DL3 /// KIR3DL3 /// KIR3DS1 (11738374_at) / Fold change /veh KIR2DL2 /// KIR2DL4 /// KIR2DL5A /// KIR2DL5B /// KIR2DS1 /// KIR2DS2 /// KIR2DS3 /// KIR2DS4 /// KIR3DL3 /// KIR3DL3 /// KIR3DS1 (11738374_at) / RFU C1QL1 (11718748_at) / Fold change /veh C1QL1 (11718748_at) / RFU TMPRSS4 (11747572_a_at) / Fold change /veh TMPRSS4 (11747572_a_at) / RFU HAMP (11756126_x_at) / Fold change /veh HAMP (11756126_x_at) / RFU RNFT2 (11725882_a_at) / Fold change /veh RNFT2 (11725882_a_at) / RFU NR4A2 (11747474_a_at) / Fold change /veh NR4A2 (11747474_a_at) / RFU ABCC12 (11746883_a_at) / Fold change /veh ABCC12 (11746883_a_at) / RFU TMEM136 (11760407_x_at) / Fold change /veh TMEM136 (11760407_x_at) / RFU CLDN22 /// WWC2 (11732394_at) / Fold change /veh CLDN22 /// WWC2 (11732394_at) / RFU HLA-DPB1 (11760878_x_at) / Fold change /veh HLA-DPB1 (11760878_x_at) / RFU SPINT1 (11716480_a_at) / Fold change /veh SPINT1 (11716480_a_at) / RFU GAP43 (11754022_s_at) / Fold change /veh GAP43 (11754022_s_at) / RFU A4GNT (11735810_at) / Fold change /veh A4GNT (11735810_at) / RFU PRB3 (11715151_x_at) / Fold change /veh PRB3 (11715151_x_at) / RFU TUBB4B (11761932_at) / Fold change /veh TUBB4B (11761932_at) / RFU CAPN14 (11732068_a_at) / Fold change /veh CAPN14 (11732068_a_at) / RFU TMCC2 (11721928_a_at) / Fold change /veh TMCC2 (11721928_a_at) / RFU IRGQ (11745062_a_at) / Fold change /veh IRGQ (11745062_a_at) / RFU FAM174B (11720279_a_at) / Fold change /veh FAM174B (11720279_a_at) / RFU TMPRSS4 (11748680_a_at) / Fold change /veh TMPRSS4 (11748680_a_at) / RFU FAM212B (11763350_a_at) / Fold change /veh FAM212B (11763350_a_at) / RFU PLEKHG5 (11743358_a_at) / Fold change /veh PLEKHG5 (11743358_a_at) / RFU ZSCAN30 (11745921_a_at) / Fold change /veh ZSCAN30 (11745921_a_at) / RFU CMKLR1 (11741424_a_at) / Fold change /veh CMKLR1 (11741424_a_at) / RFU LOC101060620 /// MAPK8IP1 (11723275_at) / Fold change /veh LOC101060620 /// MAPK8IP1 (11723275_at) / RFU SPTSSB (11747773_x_at) / Fold change /veh SPTSSB (11747773_x_at) / RFU PRSS12 (11739890_at) / Fold change /veh PRSS12 (11739890_at) / RFU BIN1 (11741810_x_at) / Fold change /veh BIN1 (11741810_x_at) / RFU WNT11 (11732464_a_at) / Fold change /veh WNT11 (11732464_a_at) / RFU C10orf10 (11716521_a_at) / Fold change /veh C10orf10 (11716521_a_at) / RFU C5orf56 (11738089_at) / Fold change /veh C5orf56 (11738089_at) / RFU CYB561 (11721691_x_at) / Fold change /veh CYB561 (11721691_x_at) / RFU ANKRD19P (11752326_a_at) / Fold change /veh ANKRD19P (11752326_a_at) / RFU OR2T12 /// OR2T33 /// OR2T8 (11738714_s_at) / Fold change /veh OR2T12 /// OR2T33 /// OR2T8 (11738714_s_at) / RFU VCAN (11748164_a_at) / Fold change /veh VCAN (11748164_a_at) / RFU JSRP1 (11732532_at) / Fold change /veh JSRP1 (11732532_at) / RFU KRTAP10-11 (11738290_x_at) / Fold change /veh KRTAP10-11 (11738290_x_at) / RFU MYO3A (11730013_a_at) / Fold change /veh MYO3A (11730013_a_at) / RFU EBF3 (11725865_a_at) / Fold change /veh EBF3 (11725865_a_at) / RFU CAMK2N1 (11719241_x_at) / Fold change /veh CAMK2N1 (11719241_x_at) / RFU C5orf56 (11738088_a_at) / Fold change /veh C5orf56 (11738088_a_at) / RFU OLFML3 (11715873_a_at) / Fold change /veh OLFML3 (11715873_a_at) / RFU LOC100653217 /// NTM (11731650_a_at) / Fold change /veh LOC100653217 /// NTM (11731650_a_at) / RFU MAPK11 (11762145_a_at) / Fold change /veh MAPK11 (11762145_a_at) / RFU FIZ1 (11724087_x_at) / Fold change /veh FIZ1 (11724087_x_at) / RFU OASL (11726364_x_at) / Fold change /veh OASL (11726364_x_at) / RFU SOX15 (11748057_x_at) / Fold change /veh SOX15 (11748057_x_at) / RFU CD79A (11719716_a_at) / Fold change /veh CD79A (11719716_a_at) / RFU HIST1H1D (11736915_at) / Fold change /veh HIST1H1D (11736915_at) / RFU CASKIN2 (11723855_a_at) / Fold change /veh CASKIN2 (11723855_a_at) / RFU LOC730098 (11760151_x_at) / Fold change /veh LOC730098 (11760151_x_at) / RFU OR4N2 (11742367_at) / Fold change /veh OR4N2 (11742367_at) / RFU PRRT2 (11749266_a_at) / Fold change /veh PRRT2 (11749266_a_at) / RFU SNX32 (11753110_a_at) / Fold change /veh SNX32 (11753110_a_at) / RFU CDHR5 (11726645_a_at) / Fold change /veh CDHR5 (11726645_a_at) / RFU RCAN1 (11760418_a_at) / Fold change /veh RCAN1 (11760418_a_at) / RFU FAM167A (11723789_a_at) / Fold change /veh FAM167A (11723789_a_at) / RFU FAM26E (11764081_at) / Fold change /veh FAM26E (11764081_at) / RFU ISYNA1 (11749810_s_at) / Fold change /veh ISYNA1 (11749810_s_at) / RFU ACY1 (11761880_at) / Fold change /veh ACY1 (11761880_at) / RFU 11764098_at / Fold change /veh 11764098_at / RFU SAMD14 (11745864_x_at) / Fold change /veh SAMD14 (11745864_x_at) / RFU NPB (11741838_a_at) / Fold change /veh NPB (11741838_a_at) / RFU TMPRSS6 (11731388_a_at) / Fold change /veh TMPRSS6 (11731388_a_at) / RFU KRTAP10-2 (11738614_at) / Fold change /veh KRTAP10-2 (11738614_at) / RFU ARHGAP8 /// PRR5-ARHGAP8 (11727945_x_at) / Fold change /veh ARHGAP8 /// PRR5-ARHGAP8 (11727945_x_at) / RFU KRTAP5-7 /// NADSYN1 (11734609_at) / Fold change /veh KRTAP5-7 /// NADSYN1 (11734609_at) / RFU RASL12 (11751679_a_at) / Fold change /veh RASL12 (11751679_a_at) / RFU CDKN2B (11736163_a_at) / Fold change /veh CDKN2B (11736163_a_at) / RFU PRF1 (11729649_at) / Fold change /veh PRF1 (11729649_at) / RFU, ZNF638 /// ZNF638-IT1 / Fold change vs veh, ZNF638 /// ZNF638-IT1 / RFU, PANK3 / Fold change vs veh, PANK3 / RFU, SH3YL1 / Fold change vs veh, SH3YL1 / RFU, ZEB2 / Fold change vs veh, ZEB2 / RFU, NRIP1 / Fold change vs veh, NRIP1 / RFU, PTTG1IP / Fold change vs veh, PTTG1IP / RFU, CAPN2 / Fold change vs veh, CAPN2 / RFU, MED14 / Fold change vs veh, MED14 / RFU, SNORA58 / Fold change vs veh, SNORA58 / RFU, C1orf63 / Fold change vs veh, C1orf63 / RFU, LRRFIP1 / Fold change vs veh, LRRFIP1 / RFU, NDUFAF7 / Fold change vs veh, NDUFAF7 / RFU, SLC12A2 / Fold change vs veh, SLC12A2 / RFU, IBTK / Fold change vs veh, IBTK / RFU, ESF1 / Fold change vs veh, ESF1 / Fold change vs veh, TMEM50B / RFU, TAOK1 / Fold change vs veh, TAOK1 / RFU, ACBD3 / Fold change vs veh, ACBD3 / RFU, TMA16 / Fold change vs veh, TMA16 / RFU, RWDD3 / Fold change vs veh, RWDD3 / RFU, BCAT1 / Fold change vs veh, BCAT1 / RFU, EDEM3 / Fold change vs veh, EDEM3 / RFU, TMEM33 / Fold change vs veh, TMEM33 / RFU, WDR75 / Fold change vs veh, WDR75 / RFU, AHCTF1 / Fold change vs veh, AHCTF1 / RFU, TFRC / Fold change vs veh, TFRC / RFU, ZDHHC17 / Fold change vs veh, ZDHHC17 / RFU, NOM1 / Fold change vs veh, NOM1 / RFU, ARL8B / Fold change vs veh, ARL8B / RFU, ZBTB11 / Fold change vs veh, ZBTB11 / RFU, TAMM41 / Fold change vs veh, TAMM41 / RFU, KIAA1704 /// LOC100996395 / Fold change vs veh, KIAA1704 /// LOC100996395 / RFU, ING1 / Fold change vs veh, ING1 / RFU, TRMT61B / Fold change vs veh, TRMT61B / RFU, FUBP3 / Fold change vs veh, FUBP3 / RFU, TP53 / Fold change vs veh, TP53 / RFU, TNKS2 / Fold change vs veh, TNKS2 / RFU, ZFP14 / Fold change vs veh, ZFP14 / RFU, ACTR2 / Fold change vs veh, ACTR2 / RFU, PPP3R1 / Fold change vs veh, PPP3R1 / RFU, PIK3R1 / Fold change vs veh, PIK3R1 / RFU, HNRNPA1 / Fold change vs veh, HNRNPA1 / RFU, RNF170 / Fold change vs veh, RNF170 / RFU, ZNF28 / Fold change vs veh, ZNF28 / RFU, RNGTT / Fold change vs veh, RNGTT / RFU, OGT / Fold change vs veh, OGT / RFU, BRD1 / Fold change vs veh, BRD1 / RFU, MARS / Fold change vs veh, MARS / RFU, ZNF655 / Fold change vs veh, ZNF655 / RFU, FAHD1 / Fold change vs veh, FAHD1 / RFU, BDP1 / Fold change vs veh, BDP1 / RFU, LRRCC1 / Fold change vs veh, LRRCC1 / RFU, ARID1A / Fold change vs veh, ARID1A / RFU, ZNF146 / Fold change vs veh, ZNF146 / RFU, ZNF330 / Fold change vs veh, ZNF330 / RFU, GPN3 / Fold change vs veh, GPN3 / RFU, C9orf123 / Fold change vs veh, C9orf123 / RFU, N4BP2L2 / Fold change vs veh, N4BP2L2 / RFU, ARFIP1 / Fold change vs veh, ARFIP1 / RFU, FAM179B / Fold change vs veh, FAM179B / RFU, BCL10 / Fold change vs veh, BCL10 / RFU, UHRF1BP1L / Fold change vs veh, UHRF1BP1L / RFU, BET1 / Fold change vs veh, BET1 / RFU, CNOT2 / Fold change vs veh, CNOT2 / RFU, ZNF268 / Fold change vs veh, ZNF268 / Fold change vs veh, ZNF507 / RFU, DGCR2 / Fold change vs veh, DGCR2 / RFU, WDSUB1 / Fold change vs veh, WDSUB1 / Fold change vs veh, HSP90B1 /// MIR3652 / RFU, ADSS / Fold change vs veh, ADSS / RFU, GK / Fold change vs veh, GK / RFU, ZNF148 / Fold change vs veh, ZNF148 / RFU, TAF9 / Fold change vs veh, TAF9 / RFU, SLC1A5 / Fold change vs veh, SLC1A5 / RFU, SLMO2 / Fold change vs veh, SLMO2 / RFU, ABCC4 / Fold change vs veh, ABCC4 / RFU, LOC101060439 /// RAP1B / Fold change vs veh, LOC101060439 /// RAP1B / RFU, RFX7 / Fold change vs veh, RFX7 / RFU, GTPBP10 / Fold change vs veh, GTPBP10 / RFU, CNEP1R1 / Fold change vs veh, CNEP1R1 / RFU, BIVM-ERCC5 /// ERCC5 / Fold change vs veh, BIVM-ERCC5 /// ERCC5 / RFU, ILF3 / Fold change vs veh, ILF3 / RFU 11762660_at / Fold change /veh 11762660_at / RFU VCAN (11757783_s_at) / Fold change /veh VCAN (11757783_s_at) / RFU DDX43 (11728927_at) / Fold change /veh DDX43 (11728927_at) / RFU KRT8 (11758188_x_at) / Fold change /veh KRT8 (11758188_x_at) / RFU NKD1 (11759106_at) / Fold change /veh NKD1 (11759106_at) / RFU SRD5A1 (11742802_a_at) / Fold change /veh SRD5A1 (11742802_a_at) / RFU TPSAB1 /// TPSB2 (11721975_s_at) / Fold change /veh TPSAB1 /// TPSB2 (11721975_s_at) / RFU GSTM3 (11746129_a_at) / Fold change /veh GSTM3 (11746129_a_at) / RFU IL23R (11737362_x_at) / Fold change /veh IL23R (11737362_x_at) / RFU TMEM51 (11727254_a_at) / Fold change /veh TMEM51 (11727254_a_at) / RFU PIWIL2 (11732686_x_at) / Fold change /veh PIWIL2 (11732686_x_at) / RFU ORM1 (11744905_x_at) / Fold change /veh ORM1 (11744905_x_at) / RFU CCDC152 (11743942_at) / Fold change /veh CCDC152 (11743942_at) / RFU ECM1 (11717891_a_at) / Fold change /veh ECM1 (11717891_a_at) / RFU IL23R (11748794_a_at) / Fold change /veh IL23R (11748794_a_at) / RFU TNFAIP8L3 (11732012_x_at) / Fold change /veh TNFAIP8L3 (11732012_x_at) / RFU MBOAT4 (11741988_at) / Fold change /veh MBOAT4 (11741988_at) / RFU 11764193_at / Fold change /veh 11764193_at / RFU TMEM53 (11763286_at) / Fold change /veh TMEM53 (11763286_at) / RFU MAGEB2 (11727129_at) / Fold change /veh MAGEB2 (11727129_at) / RFU TMEM200A (11744735_a_at) / Fold change /veh TMEM200A (11744735_a_at) / RFU CCDC152 (11751479_a_at) / Fold change /veh CCDC152 (11751479_a_at) / RFU FAM211A (11726209_a_at) / Fold change /veh FAM211A (11726209_a_at) / RFU RGS16 (11746705_a_at) / Fold change /veh RGS16 (11746705_a_at) / RFU VCAN (11755009_s_at) / Fold change /veh VCAN (11755009_s_at) / RFU RHOB (11743442_s_at) / Fold change /veh RHOB (11743442_s_at) / RFU RGS16 (11720943_a_at) / Fold change /veh RGS16 (11720943_a_at) / RFU RGS16 (11720944_at) / Fold change /veh RGS16 (11720944_at) / RFU, VPS4B / Fold change vs veh, VPS4B / RFU, CREB1 / Fold change vs veh, CREB1 / RFU, DNAJC13 / Fold change vs veh, DNAJC13 / RFU, GNAQ / Fold change vs veh, GNAQ / RFU, CDK5R1 / Fold change vs veh, CDK5R1 / RFU, ZRANB3 / Fold change vs veh, ZRANB3 / RFU, CUL4A / Fold change vs veh, CUL4A / RFU, CCNY / Fold change vs veh, CCNY / RFU, UFL1 / Fold change vs veh, UFL1 / RFU, COG3 / Fold change vs veh, COG3 / RFU, DIAPH2 / Fold change vs veh, DIAPH2 / RFU, SKA2 / Fold change vs veh, SKA2 / RFU, AFF3 / Fold change vs veh, AFF3 / RFU, LMF1 / Fold change vs veh, LMF1 / RFU, IPO11 / Fold change vs veh, IPO11 / RFU, DFFB / Fold change vs veh, DFFB / RFU, FOXP1 / Fold change vs veh, FOXP1 / RFU, CARD8 / Fold change vs veh, CARD8 / RFU, STRN3 / Fold change vs veh, STRN3 / RFU, ADK / Fold change vs veh, ADK / RFU, RASSF2 / Fold change vs veh, RASSF2 / RFU, WIPF1 / Fold change vs veh, WIPF1 / RFU, LARP1B / Fold change vs veh, LARP1B / RFU, RASA1 / Fold change vs veh, RASA1 / RFU, RB1 / Fold change vs veh, RB1 / RFU, PPFIA1 / Fold change vs veh, PPFIA1 / RFU, MAT2A / Fold change vs veh, MAT2A / RFU, CCT5 / Fold change vs veh, CCT5 / RFU, WDR92 / Fold change vs veh, WDR92 / RFU, CUX1 / Fold change vs veh, CUX1 / RFU, TTC7A / Fold change vs veh, TTC7A / RFU, TMEM135 / Fold change vs veh, TMEM135 / RFU, DEPTOR / Fold change vs veh, DEPTOR / RFU, CPM / Fold change vs veh, CPM / RFU, DNAJB6 / Fold change vs veh, DNAJB6 / RFU, CACNA2D3 / Fold change vs veh, CACNA2D3 / RFU, DTX4 / Fold change vs veh, DTX4 / RFU, TFCP2 / Fold change vs veh, TFCP2 / RFU, GMCL1 /// GMCL1P1 / Fold change vs veh, GMCL1 /// GMCL1P1 / RFU, AEBP2 / Fold change vs veh, AEBP2 / RFU, SNHG1 /// SNORD22 /// SNORD25 /// SNORD26 /// SNORD27 /// SNORD28 /// SNORD29 /// SNORD31 / Fold change vs veh, SNHG1 /// SNORD22 /// SNORD25 /// SNORD26 /// SNORD27 /// SNORD28 /// SNORD29 /// SNORD31 / Fold change (Aza/veh), C12orf56 (ProbeSet 11735607_a_at) / Fold change (ACY-1035/veh), C12orf56 (ProbeSet 11735607_a_at) / Fold change (Aza/veh), FGFR1OP (ProbeSet 11751329_s_at) / Fold change (ACY-1035/veh), FGFR1OP (ProbeSet 11751329_s_at) / Fold change (Aza/veh), VPS36 (ProbeSet 11739960_a_at) / Fold change (ACY-1035/veh), VPS36 (ProbeSet 11739960_a_at) / RFU SYPL1 (11715823_x_at) / Fold change /veh SYPL1 (11715823_x_at) / RFU IGFBP7 (11715501_s_at) / Fold change /veh IGFBP7 (11715501_s_at) / RFU REEP3 (11722064_at) / Fold change /veh REEP3 (11722064_at) / RFU IGLL1 (11728026_x_at) / Fold change /veh IGLL1 (11728026_x_at): dose or concentration left out as unconfirmed",
  "conditions": "MV-4-11 cells, 48 hours",
  "data": [
    {"smiles": "Nc1ncn([C@@H]2O[C@H](CO)[C@@H](O)[C@H]2O)c(=O)n1", "note": "[azacitidine]", "values": [
      {"measurement": "Fold change /veh LRRC4B (11730491_at)", "value": 1.07}
    ]}
  ]
}
